From patent US20100035882A1, “INHIBITION OF PDE2A” (priority 2006, published 2010)
“And” between values parts separate entries of the source, which are not always exact repeats. Identical values can stand only once. “Also recorded” adds a separate entry of the source.

Key:
[1] = test system: mice (C57b1/6 strain), isoprenaline-induced cardiac hypertrophy; assay: Mouse isoprenaline hypertrophy model, heart weight/body weight ratio; type: in vivo; conditions: for Effect on heart weight:body weight ratio (HW:BW) (in words): with isoprenaline 2 mg/kg/d s.c.
Experimental: (§1) In order to verify that incubation of H9c2 cells with the PDE2A inhibitor BAY 60-7550 also leads to an increase in the intracellular cGMP level and thus has an antihypertrophic effect, the intracellular cGMP content was determined by EIA after stimulation of cGMP synthesis by ANP in the presence of the PDE2A inhibitor BAY 60-7550. […] To verify the in vitro findings, the antihypertrophic effect of the PDE2 inhibitor BAY 60-7550 was investigated in vivo in a mouse hypertrophy model. For this purpose, mice of the C57BL6 strain received subcutaneous administration of 2 mg/kg isoprenaline once a day and, as positive control, 10 mg/kg enalapril administered via the drinking water in addition to the isoprenaline.
FIG. 4: Alteration in the heart weight compared with the body weight (HW:BW) by subcutaneous administration of isoprenaline (2 mg/kg/d) and the influence of enalapril as positive control […] in the drinking water) and of the PDE2A inhibitor BAY 60-7550. The heart weight:body weight ratio as a function of the treatment is shown.
Assay of PDE2A inhibitors for anti-hypertrophic effect in vivo:
The antihypertrophic effect of the PDE2A inhibitor BAY 60-7550 is assayed by using the so-called mouse isoprenaline model [ ]. This involves 8 mice (C57b1/6 strain) per dose group receiving subcutaneous administration of isoprenaline at a dose of 2 mg/kg/d for 5 days, while the control group receives a saline solution as vehicle control. As positive control, in addition to the isoprenaline, the ACE inhibitor enalapril was administered in a dose of 10 mg/kg/d via the drinking water to one group, while two further groups received in addition to the isoprenaline the PDE2A inhibitor BAY 60-7550 administered intraperitoneally with a dose of 10 mg/kg/d. As a measure of the degree of cardiac hypertrophy, the heart weight/body weight (HW:BW) ratio is determined after 5 d, and the relation of the effect of the substances to the effect of isoprenaline is found.

[2] = test system: intracellular cGMP in H9c2 rat cardiomyocytes; assay: Intracellular cGMP content in H9c2 cells after ANP stimulation (EIA); type: cell-based; conditions: 15 min, FIG. 3
Experimental: as §1
FIG. 3: Change in the intracellular cGMP concentration in H9c2 rat cardiomyocytes after stimulation with ANP in the presence of various concentrations of the PDE2A inhibitor BAY 60-7550. The cGMP content in the cells after incubation with ANP and the stated dosages of the PDE2A inhibitor BAY 60-7550 for 15 min is shown.
Determination of the cGMP Content in H9c2 Cells after Preincubation with the PDE2A Inhibitor BAY 60-7550
The intracellular cGMP content in H9c2 cells was determined with the Biotrak (EIA) Immunoassay from Amersham (catalog No. RPN 226) in accordance with the manufacturer's protocol. […] The fluorescence is measured at 450/570 nm in a Tecan Spectrafluor photometer. […]

[3] = test system: hypertrophy marker MYHCB in H9C2 rat cells; assay: Relative expression of hypertrophy marker MYHCB in H9C2 rat cells after vasopressin ± BAY 60-7550 (real-time PCR); type: cell-based
Experimental: FIG. 2: Relative expression of the hypertrophy marker MYHCB in H9C2 rat cells after stimulation by vasopressin±PDE2A inhibitor BAY 60-7550.
The expression of ANP and MYHCB relative to L32 ribosomal protein in H9C2 cells after incubation with vasopressin (0.1 micromol, 1 micromal, 10 micromol) for 72 h is shown. […] (Mean relative expression rE from a duplicate determination).
(§2) The relative expression of PDE2A in H9c2 rat cells is measured by quantifying the mRNA using the real-time polymerase chain reaction. Compared with conventional PCR, the real-time PCR has the advantage of more accurate quantification by introducing an additional, fluorescence-labeled oligonucleotide. This so-called probe contains at the 5′ end the fluorescent dye FAM (6-carboy-fluorescein) and at the 3′ end the fluorescence quencher TAMRA (6-carboxy-tetramethylrhodamine). During the polymerase chain reaction, the fluorescent dye FAM is cleaved off the probe by the 5′-exonuclease activity of the Taq polymerase in the TaqMan PCR, and thus the previously quenched fluorescence signal is obtained. The number of the cycle at which the fluorescence intensity is about 10 standard deviations above the background fluorescence is recorded as the so-called threshold [treshold cyle (Ct value)].
Total RNA is isolated from the H9c2 rat cardiomyocytes from a 6-well (about 4×10^5 cells) using an RNeasy Kit (Qiagen Hilden). 1 μg portions of total RNA per tissue are reacted with 1 unit of DNase I (from Invitrogen) at room temperature for 15 min to remove contamination by genomic DNA. The Dnase I is inactivated by adding 1 μl of EDTA (25 mM) and subsequent heating at 65° C. (10 min).
Subsequently, cDNA synthesis is carried out in the same reaction mixture in accordance with the instruction for the “SUPERSCRIPT-II RT cDNA synthesis kit” (from Invitrogen), and the reaction volume is made up to 200 μl with distilled water. For the PCR, 7.5 μl of primer and probe mixture and 12.5 μl of TaqMan reaction solution (qPCR Mastermix, from Eurogentec) are added to 5 μl portions of the diluted cDNA solution. The final concentration of the primers is 300 nM in each case, and that of the probe is 150 nM. The sequence of the forward and reverse primer for the rat PDE2A is: 5′-[…]-3′ (SEQ ID NO: 3) and 5′-[…]-3′ (SEQ ID NO: 4), and the sequence of the fluorescent probe is 5′-6FAM-[…]-TAMRA-3′ (SEQ ID NO: 5). The sequence of the forward and reverse primer for r-MYHCB is: 5′-[…]-3′ (SEQ ID NO: 6) and 5′-[…]-3′ (SEQ ID NO: 7), and the sequence of the fluorescent probe is 5′-6FAM-[…]-TAMRA-3′ (SEQ ID NO: 8).
The PCR takes place on an ABI Prism SDS-7700 apparatus (from Applied Biosystems) in accordance with the manufacturer's instructions. 40 cycles are carried out in this case. The Ct (see above) which is obtained for the respective gene in the relevant cDNA corresponds to the cycle in which the fluorescence intensity of the liberated probe is about 10 standard deviations above the background signal. A lower Ct value thus means an earlier start of amplification, i.e. the original sample contains more mRNA. To compensate for any variations in the cDNA synthesis, the expression of a so-called “housekeeping gene”, which should always be expressed to the same extent irrespective of the treatment of the cells, is also analyzed in all the investigated samples. L32 ribosomal protein is used to standardize PDE2A expression in H9c2 cells. The sequence of the forward and reverse primer for rat L32 is 5′-[…]-3′ (SEQ ID NO: 9), and 5′-[…]-3′ (SEQ ID NO: 10), and the sequence of the probe is 5′-6FAM-[…]-TAMRA-3′ (SEQ ID NO: 11). The data are analyzed in the following way: the dCt value is calculated for each RNA. The dCt value is the difference between the Ct values for the candidate gene (i.e.: MYHCB or PDE2A) and the Ct value of the housekeeping gene in the respective tissue. […]

[4] = test system: PDE2A-mRNA in H9c2 rat cardiomyocytes; assay: Relative expression of PDE2A-RNA in H9c2 cells after arginine-vasopressin (real-time PCR); type: cell-based; conditions: Vasopressin 1 μM, 72 h, triplicate mean, control 159.73
Description: For this purpose, the rat cardiomyocyte cell line H9c2 (ATCC number: CRL-1446) was exposed to a hypertrophic stimulus by arginine-vasopressin which is expressed inter alia in an increased expressed of marker genes for cardiac hypertrophy such as ANP (atrial natriuretic peptide) and MYHCB (myosin heavy chain beta-subunit). An increased expression of the cGMP-hydrolyzing PDE2A is able to reduce the intracellular cGMP level of the cardiomyocytes and thus suppress the antihypertrophic effect of cGMP [3,4]. […]
as §2, with “value)]. […]” for “value)].”

## COc1ccc(Cc2nn3c(C(CCCc4ccccc4)C(C)O)nc(C)c3c(=O)[nH]2)cc1OC (stereo not shown) [BAY 60-7550, 2-(3,4-dimethoxybenzyl)-7-[1-(1-hydroxyethyl)-4-phenylbutyl]-5-methylimidazo[5,1-f][1,2,4]triazin-4(3H)-one]
[1]; BAY 60-7550 10 mg/kg i.p., 5 days, two groups, FIG. 4
  Effect on heart weight:body weight ratio (HW:BW) (in words): able to suppress the isoprenaline-induced increase in heart weight almost as well as the positive control enalapril; also recorded: marked reduction in the ratio of the weight of the heart to the body weight
[2]
  Effect on intracellular cGMP content (in words): dose-dependently and synergistically increases the intracellular cGMP level; also recorded: dose-dependently increases the intracellular cGMP content
[3]; H9c2 cells, vasopressin stimulation, FIG. 2
  Effect on vasopressin-induced increase of hypertrophy marker gene MYHCB (in words): dose-dependently suppresses the induction of the hypertrophy marker MYHCB by vasopressin; also recorded: dose-dependent suppression of the increase in the hypertrophy marker gene MYHCB
[3]; Vasopressin 1 μM + 0.1 μM BAY 60-7550, 72 h
  rE (expression of MYHCB relative to L32): 9.00 and 15.89
[3]; Vasopressin 1 μM + 0.1 μM BAY 60-7550, duplicate mean, vasopressin alone 17.23
  MW (mean rE of MYHCB): 12.44
[3]; Vasopressin 1 μM + 1 μM BAY 60-7550, duplicate mean, vasopressin alone 17.23
  MW (mean rE of MYHCB): 8.54
[3]; Vasopressin 1 μM + 10 μM BAY 60-7550, 72 h
  rE (expression of MYHCB relative to L32): 4.56 and 3.01
[3]; Vasopressin 1 μM + 10 μM BAY 60-7550, duplicate mean, vasopressin alone 17.23
  MW (mean rE of MYHCB): 3.79

## NC(=O)CC[C@@H]1NC(=O)[C@H](Cc2ccccc2)NC(=O)[C@H](Cc2ccc(O)cc2)NC(=O)[C@@H](N)CSSC[C@@H](C(=O)N2CCC[C@H]2C(=O)N[C@@H](CCCN=C(N)N)C(=O)NCC(N)=O)NC(=O)[C@H](CC(N)=O)NC1=O [Vasopressin, arginine-vasopressin, reference compound]
[3]; Vasopressin 1 μM alone, 72 h, H9C2 cells
  rE (expression of MYHCB relative to L32): 19.43 and 15.03
[3]; Vasopressin 1 μM alone, 72 h, duplicate mean, control 0.50
  MW (mean rE of MYHCB): 17.23
[4]
  MW (mean rE of PDE2A): 613.64

## CCOC(=O)[C@H](CCc1ccccc1)N[C@@H](C)C(=O)N1CCC[C@H]1C(=O)O [enalapril, reference compound]
[1]; enalapril 10 mg/kg via drinking water, positive control
  Effect on heart weight:body weight ratio (HW:BW) (in words): marked reduction in the ratio of the weight of the heart to the body weight

## CC(C)NCC(O)c1ccc(O)c(O)c1 (stereo not shown) [isoprenaline, reference compound]
[1]; isoprenaline 2 mg/kg/d s.c. alone, hypertrophic stimulus
  Effect on heart weight in relation to body weight (in words): increases the weight of the animal's heart in relation to the body weight
